# In patent publication US10174067B2, “Type of cytidine derivative and application thereof” (priority 2014, dated 2019):
# Marks after values point to notes of the source that are not given here.
# Assays:
# [1] = Experimental: To determine the growth inhibition effect and toxicity of the cytidine derivative samples of the present invention on the transplanted tumor of nude mice bearing colon cancer HCT-116.
# The corresponding amount of test substance was taken in a 5 mL glass tube and dissolved in ethanol with a 5 mm magnetic stirrer for stirring. After dissolving completely, Cremophor EL was added with continuous stirring. The marked amount of saline was added and mixed evenly before use. The volume ratio of ethanol, Cremophor EL, and physiological saline was 5:5:90.
# Varieties and lines; Balb/c Nude mice; level: SPF; sex: female.
# 4.2 Animal inoculation and grouping: Each nude mouse was inoculated subcutaneously with 0.1 mL of cell suspension (3×10^6 cell/mouse) at right side of hind limb in a sterile stale. When the tumor grew to about 60-150 mm^3, the nude mice with similar tumor volume and desirable shape were selected (it would be better to select single spherical shape, no irregular shape or multiple tumors grouped together) for grouping, 6 mice a group. The grouping is as follows:
# The control group, namely the model control group, was injected with a mixture of ethanol, Cremophor EL, and saline (5:5:90).
# Those mice were weighed three times a week.
# All clinical symptoms of each animal should be recorded at the beginning of the test and during the test. The observations should be made at the same time each day.
# An animal would be killed by CO2 when its weight loss was more than 20%, when it was about to die, or when its tumor volume exceeded 2800 mm^3. The tumor was separated and weighed, and the animal was autopsied and observed to evaluate and record whether there were pathological changes in the organs.
# The data were expressed as Mean±SEM unless specially provided; Non-pairing T test was performed for the data between the two groups. P<0.05 was considered as significant difference.
# [2] = tested on: HCT-116 colon cancer xenografts; experiment: Tumor growth inhibition of HCT-116 colon cancer xenografts in tumor-bearing nude mice (tumor volume, TGI %, RTV, T/C %); assay type: in vivo, Balb/c Nude mice; settings: for T/C % (relative tumor proliferation rate): dosage 400 mg/kg (G10-G16 study);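 for T/C % (relative tumor proliferation rate): control C is the vehicle-treated model control group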
# Experimental: 4.1 Tumor cells: colon cancer HCT-116 cells, purchased from the Institute of Cell Biology, Chinese Academy of Sciences. The cells were incubated by F-12 medium (containing 10% FBS) in carbon dioxide incubator at 37° C. and in saturated humidity, with 5% CO2 and 95% air in volume fraction. Before inoculation, the cells at logarithmic phase were taken, and digested with 0.25% trypsin, washed once with PBS and resuspended in PBS for counting. The cells were resuspended in serum-free medium and adjusted to about 3×10^7 cell/mL.
# The grouping is as follows:
# The formations of tumor at the inoculation site of each group of nude mice were observed. The diameter of tumor nodule (D) was measured three times a week with round hole ruler, and the volume of tumor nodule (V) was calculated according to the following formula: […].
# Anti-tumor activity was evaluated by tumor growth inhibition rate TGI (%) and relative tumor proliferation rate T/C (%).
# The relative tumor volume (RTV) was calculated as: RTV=Vt/V0, where V0 was the tumor volume when they were grouped and administered, and Vt was the tumor volume at the time of measurement.
# The relative proliferation rate T/C (%) was calculated as: […].
# TRTV: RTV of the treatment group; CRTV: RTV of the control group.
# P<0.05 was considered as significant difference.
# [3] = Day 0, G10-G16 groups, single IP 400 mg/kg
# [4] = Day 0, G10-G16 groups, single IP 400 mg/kg, Mean±SEM
# [5] = Day 1, G10-G16 groups, single IP 400 mg/kg, Mean±SEM
# [6] = Day 2, G10-G16 groups, single IP 400 mg/kg, Mean±SEM
# [7] = Day 4, G10-G16 groups, single IP 400 mg/kg, Mean±SEM
# [8] = Day 7, G10-G16 groups, single IP 400 mg/kg, Mean±SEM
# [9] = Day 9, G10-G16 groups, single IP 400 mg/kg, Mean±SEM
# [10] = Day 11, G10-G16 groups, single IP 400 mg/kg, Mean±SEM
# [11] = Day 14, G10-G16 groups, single IP 400 mg/kg, Mean±SEM
# [12] = Day 16, G10-G16 groups, single IP 400 mg/kg, Mean±SEM
# [13] = Day 18, G10-G16 groups, single IP 400 mg/kg, Mean±SEM
# [14] = Day 21, G10-G16 groups, single IP 400 mg/kg, Mean±SEM
# [15] = Day 23, G10-G16 groups, single IP 400 mg/kg, Mean±SEM
# [16] = Day 25, G10-G16 groups, single IP 400 mg/kg, Mean±SEM
# [17] = Day 28, G10-G16 groups, single IP 400 mg/kg, Mean±SEM
# [18] = Day 30, G10-G16 groups, single IP 400 mg/kg, Mean±SEM
compound,measurement,setting,value
CCCCOC(=O)Nc1nc(=O)n([C@@H]2O[C@H](COC(=O)Cn3cnc([N+](=O)[O-])c3)C(O)C2(F)F)cc1I (stereo partly shown) [Compound G12],"Weight change rate, Day 0",[1]; [3],0.00%
same,"Weight of mice, Day 0",[1]; [4],20.05 ± 0.26 g
same,"Weight change rate, Day 1",[1]; [5],−2.59 ± 1.08%
same,"Weight of mice, Day 1",[1]; [5],19.53 ± 0.36 g
same,"Weight change rate, Day 2",[1]; [6],−3.15 ± 0.93%
same,"Weight of mice, Day 2",[1]; [6],19.42 ± 0.29 g
same,"Weight change rate, Day 4",[1]; [7],−1.54 ± 1.11%
same,"Weight of mice, Day 4",[1]; [7],19.73 ± 0.25 g
same,"Weight change rate, Day 7",[1]; [8],−0.93 ± 1.50 %
same,"Weight of mice, Day 7",[1]; [8],19.85 ± 0.21 g
same,"Weight change rate, Day 9",[1]; [9],2.11 ± 2.28%
same,"Weight of mice, Day 9",[1]; [9],20.45 ± 0.32 g
same,"Weight change rate, Day 11",[1]; [10],3.34 ± 2.25%
same,"Weight of mice, Day 11",[1]; [10],20.70 ± 0.36 g
same,"Weight change rate, Day 14",[1]; [11],1.76 ± 2.11 %
same,"Weight of mice, Day 14",[1]; [11],20.38 ± 0.32 g
same,"Weight change rate, Day 16",[1]; [12],2.56 ± 1.91 %
same,"Weight of mice, Day 16",[1]; [12],20.55 ± 0.34 g
same,"Weight change rate, Day 18",[1]; [13],5.03 ± 2.23 %
same,"Weight of mice, Day 18",[1]; [13],21.05 ± 0.46 g
same,"Weight change rate, Day 21",[1]; [14],3.68 ± 2.13 %
same,"Weight of mice, Day 21",[1]; [14],20.78 ± 0.48 g
same,Day 22 Mortality,"[1]; Day 22, single IP dose (mg/kg)",0%
same,"Weight change rate, Day 23",[1]; [15],4.37 ± 1.91 %
same,"Weight of mice, Day 23",[1]; [15],20.92 ± 0.38 g
same,"Weight change rate, Day 25",[1]; [16],6.69 ± 1.87 %
same,"Weight of mice, Day 25",[1]; [16],21.38 ± 0.39 g
same,"Weight change rate, Day 28",[1]; [17],4.43 ± 0.69%
same,"Weight of mice, Day 28",[1]; [17],20.68 ± 0.31 g
same,"Weight change rate, Day 30",[1]; [18],5.67 ± 0.86%
same,"Weight of mice, Day 30",[1]; [18],20.93 ± 0.43 g
same,clinical symptoms,"[1]; after single IP dose, compared with model control group",no significant differences in clinical symptoms
same,Day 0 (RTV),[2]; [3],1.00
same,"Tumor volume, Day 0",[2]; [4],70.49 ± 13.19* mm^3
same,T/C % (relative tumor proliferation rate),[2]; Day 0,0.00%
same,Day 1 (TGI %),"[2]; Day 1, G10-G16 groups, single IP 400 mg/kg",62.26%
same,Day 1 (RTV),[2]; [5],1.12 ± 0.22
same,"Tumor volume, Day 1",[2]; [5],68.13 ± 11.02** mm^3
same,T/C % (relative tumor proliferation rate),[2]; Day 1,66.60%
same,Day 2 (TGI %),"[2]; Day 2, G10-G16 groups, single IP 400 mg/kg",63.70%
same,Day 2 (RTV),[2]; [6],1.28 ± 0.22
same,"Tumor volume, Day 2",[2]; [6],80.54 ± 15.99** mm^3
same,T/C % (relative tumor proliferation rate),[2]; Day 2,61.57%
same,Day 4 (TGI %),"[2]; Day 4, G10-G16 groups, single IP 400 mg/kg",58.48%
same,Day 4 (RTV),[2]; [7],1.80 ± 0.23
same,"Tumor volume, Day 4",[2]; [7],123.31 ± 27.06** mm^3
same,T/C % (relative tumor proliferation rate),[2]; Day 4,65.24%
same,Day 7 (TGI %),"[2]; Day 7, G10-G16 groups, single IP 400 mg/kg",51.81%
same,Day 7 (RTV),[2]; [8],3.07 ± 0.38
same,"Tumor volume, Day 7",[2]; [8],208.41 ± 44.11** mm^3
same,T/C % (relative tumor proliferation rate),[2]; Day 7,75.07%
same,Day 9 (TGI %),"[2]; Day 9, G10-G16 groups, single IP 400 mg/kg",49.03%
same,Day 9 (RTV),[2]; [9],4.37 ± 0.50
same,"Tumor volume, Day 9",[2]; [9],300.88 ± 62.43* mm^3
same,T/C % (relative tumor proliferation rate),[2]; Day 9,77.79%
same,Day 11 (TGI %),"[2]; Day 11, G10-G16 groups, single IP 400 mg/kg",51.33%
same,Day 11 (RTV),[2]; [10],7.11 ± 1.07
same,"Tumor volume, Day 11",[2]; [10],475.09 ± 105.26** mm^3
same,T/C % (relative tumor proliferation rate),[2]; Day 11,77.05%
same,Day 14 (TGI %),"[2]; Day 14, G10-G16 groups, single IP 400 mg/kg",39.61%
same,Day 14 (RTV),[2]; [11],13.07 ± 2.18
same,"Tumor volume, Day 14",[2]; [11],869.70 ± 190.68* mm^3
same,T/C % (relative tumor proliferation rate),[2]; Day 14,94.48%
same,Day 16 (TGI %),"[2]; Day 16, G10-G16 groups, single IP 400 mg/kg",30.00%
same,Day 16 (RTV),[2]; [12],19.45 ± 2.82
same,"Tumor volume, Day 16",[2]; [12],1267.85 ± 225.13 mm^3
same,T/C % (relative tumor proliferation rate),[2]; Day 16,112.70%
same,Day 18 (TGI %),"[2]; Day 18, G10-G16 groups, single IP 400 mg/kg",19.24%
same,Day 18 (RTV),[2]; [13],26.31 ± 5.44
same,"Tumor volume, Day 18",[2]; [13],1613.91 ± 242.24 mm^3
same,T/C % (relative tumor proliferation rate),[2]; Day 18,137.82%
same,Day 21 (TGI %),"[2]; Day 21, G10-G16 groups, single IP 400 mg/kg",21.29%
same,Day 21 (RTV),[2]; [14],32.69 ± 8.02
same,"Tumor volume, Day 21",[2]; [14],1924.26 ± 257.46 mm^3
same,T/C % (relative tumor proliferation rate),[2]; Day 21,139.66%
same,Day 23 (TGI %),"[2]; Day 23, G10-G16 groups, single IP 400 mg/kg",17.69%
same,Day 23 (RTV),[2]; [15],33.10 ± 7.89
same,"Tumor volume, Day 23",[2]; [15],1943.90 ± 242.19 mm^3
same,T/C % (relative tumor proliferation rate),[2]; Day 23,167.43%
same,Day 25 (TGI %),"[2]; Day 25, G10-G16 groups, single IP 400 mg/kg",17.26%
same,Day 25 (RTV),[2]; [16],36.50 ± 8.74
same,"Tumor volume, Day 25",[2]; [16],2136.52 ± 258.58 mm^3
same,T/C % (relative tumor proliferation rate),[2]; Day 25,168.82%
same,Day 28 (TGI %),"[2]; Day 28, G10-G16 groups, single IP 400 mg/kg",24.12%
same,Day 28 (RTV),[2]; [17],43.13 ± 14.83
same,"Tumor volume, Day 28",[2]; [17],2040.64 ± 281.98 mm^3
same,T/C % (relative tumor proliferation rate),[2]; Day 28,204.13%
same,Day 30 (TGI %),"[2]; Day 30, G10-G16 groups, single IP 400 mg/kg",16.67%
same,Day 30 (RTV),[2]; [18],49.17 ± 15.89
same,"Tumor volume, Day 30",[2]; [18],2338.31 ± 292.39 mm^3
same,T/C % (relative tumor proliferation rate),[2]; Day 30,198.17%
